In US20190381086A1, “INHIBITION OF NEDDYLATION USING GLYCYL-tRNA SYNTHETASE INHIBITORS” (The Scripps Research Institute, priority 2015, published 2019):

Legend:
[1] = test system: M14; type: cell-based; conditions: M14, Melanoma
[2] = test system: OVCAR-8; type: cell-based; conditions: OVCAR-8, Ovarian Cancer
[3] = test system: CCRF-CEM; type: cell-based; conditions: Leukemia
[4] = molecular target: S. aureus GlyRS (UniProt Q2FY08); conditions: read-out: IC50 (the inhibitor concentration at which GlyRS activity is reduced by half); cited from earlier work
[5] = test system: SW-620; experiment: NCI 60 Cell One-Dose Screen; type: cell-based, human; conditions: SW-620, Colon Cancer; single dose 10^-5 M
[6] = test system: SR; experiment: NCI 60 Cell One-Dose Screen; type: cell-based, human; conditions: Leukemia, single dose 10^-5 M
[7] = test system: ACHN; type: cell-based; conditions: Renal Cancer
[8] = test system: NCI/ADR-RES; experiment: NCI 60 Cell One-Dose Screen; type: cell-based, human; conditions: Ovarian Cancer, single dose 10^-5 M
[9] = test system: SF-539; type: cell-based; conditions: SF-539, CNS Cancer
[10] = test system: SR; type: cell-based; conditions: Leukemia
[11] = test system: SK-MEL-5; type: cell-based; conditions: SK-MEL-5, Melanoma
[12] = test system: SK-OV-3; experiment: NCI 60 Cell One-Dose Screen; type: cell-based, human; conditions: SK-OV-3, Ovarian Cancer; single dose 10^-5 M
[13] = test system: PC-3; type: cell-based; conditions: PC-3, Prostate Cancer
[14] = test system: NCI-H460; type: cell-based; conditions: NCI-H460, Non-Small Cell Lung Cancer
[15] = test system: LOX IMVI; type: cell-based; conditions: Melanoma
[16] = test system: SK-MEL-2; type: cell-based; conditions: SK-MEL-2, Melanoma
[17] = test system: MDA-MB-231/ATCC; experiment: NCI 60 Cell One-Dose Screen; type: cell-based, human; conditions: Breast Cancer, single dose 10^-5 M
[18] = test system: NCI-H23; experiment: NCI 60 Cell One-Dose Screen; type: cell-based, human; conditions: NCI-H23, Non-Small Cell Lung Cancer; single dose 10^-5 M
[19] = test system: A498; type: cell-based; conditions: A498, Renal Cancer
[20] = test system: NCI-H226; type: cell-based; conditions: NCI-H226, Non-Small Cell Lung Cancer
[21] = mouse, in vivo
Protocol: (§1) GlySA (DMSO stock solution diluted by saline) were administrated to three month old female BALB CJ mice via tail vein injections. […] The GlySA concentration tested were 0.4 mg/kg (10 μM), 2.0 mg/kg (50 μM), 4.0 mg/kg (100 μM). N=3 for each group.
as §1, with “Animal experiments were also performed to study the use of GlySA to treat cancer. A maximum tolerant dosage assay of GlySA was conducted. GlySA (DMSO” for “GlySA (DMSO”

[22] = test system: NCI-H460; experiment: NCI 60 Cell One-Dose Screen; type: cell-based, human; conditions: NCI-H460, Non-Small Cell Lung Cancer; single dose 10^-5 M
[23] = test system: SN12C; type: cell-based; conditions: Renal Cancer
[24] = test system: MOLT-4; experiment: NCI 60 Cell One-Dose Screen; type: cell-based, human; conditions: MOLT-4, Leukemia; single dose 10^-5 M
[25] = test system: MDA-MB-468
[26] = test system: UACC-62; type: cell-based; conditions: UACC-62, Melanoma
[27] = test system: CCRF-CEM; experiment: NCI 60 Cell One-Dose Screen; type: cell-based, human; conditions: Leukemia, single dose 10^-5 M
[28] = test system: COLO 205; experiment: NCI 60 Cell One-Dose Screen; type: cell-based, human; conditions: COLO 205, Colon Cancer; single dose 10^-5 M
[29] = test system: UO-31; type: cell-based; conditions: UO-31, Renal Cancer
[30] = Homo sapiens, read-out: LC50 (the source's name)

NCC(=O)NS(=O)(=O)OC[C@H]1O[C@@H](n2cnc3c(N)ncnc32)[C@H](O)[C@@H]1O [GlySA, glycylsulfamoyladenosine]
GI50 ([1]; Homo sapiens): 1.82 µM
CC50 [1, 30]: 7.24 µM
LC50/GI50 [1]: 4.0
GI50 ([2]; Homo sapiens): 2.46 µM
CC50 [2, 30]: > 100 µM
LC50/GI50 [2]: >40.7
GI50 ([3]; Homo sapiens): 3.71 µM
LC50/GI50 [3]: >26.9
IC50 [4]: ~2400 µM
Growth inhibition count (%) [5]: 3.712%
Growth inhibition count (%) [6]: 9.926%
GI50 ([7]; Homo sapiens): 2.88 µM
CC50 [7, 30]: 33.9 µM
LC50/GI50 [7]: 11.7
Growth inhibition count (%) [8]: 2.073%
GI50 ([9]; Homo sapiens): 1.45 µM
CC50 [9, 30]: 8.91 µM
LC50/GI50 [9]: 6.2
GI50 ([10]; Homo sapiens): 0.933 µM
CC50 [10, 30]: > 100 µM
LC50/GI50 [10]: >107.2
GI50 ([11]; Homo sapiens): 1.86 µM
LC50/GI50 [11]: 3.2
Growth inhibition count (%) [12]: 6.281%
GI50 ([13]; Homo sapiens): 2.63 µM
CC50 [13, 30]: 56.2 µM
LC50/GI50 [13]: 21.4
GI50 ([14]; Homo sapiens): 3.24 µM
CC50 [14, 30]: > 100 µM
LC50/GI50 [14]: >30.9
GI50 ([15]; Homo sapiens): 1.7 µM
CC50 [15, 30]: 7.41 µM
LC50/GI50 [15]: 4.4
GI50 ([16]; Homo sapiens): 2.24 µM
CC50 [16, 30]: 10 µM
LC50/GI50 [16]: 4.5
Growth inhibition count (%) [17]: 2.608%
Growth inhibition count (%) [18]: 5.695%
LC50/GI50 [19]: 4.1
GI50 ([19]; Homo sapiens): 1.58 µM
CC50 [19, 30]: 6.46 µM
GI50 ([20]; Homo sapiens): 2 µM
CC50 [20, 30]: 7.08 µM
LC50/GI50 [20]: 3.5
survival of mice after four injections [21]: all were alive
Growth inhibition count (%) [22]: 3.35%
GI50 ([23]; Homo sapiens): 0.562 µM
CC50 [23, 30]: 95.5 µM
LC50/GI50 [23]: 169.8
Growth inhibition count (%) [24]: 1.146%
GI50 ([25]; Homo sapiens, MDA-MB-468): 0.741 µM
CC50 ([25]; Homo sapiens, MDA-MB-468, read-out: LC50 (μM)): 7.59 µM
LC50/GI50 ([25]; MDA-MB-468, Breast Cancer): 10.2
GI50 ([26]; Homo sapiens): 1.86 µM
LC50/GI50 [26]: 4.2
Growth inhibition count (%) [27]: 21.68%
Growth inhibition count (%) [28]: 48.51%
GI50 ([29]; Homo sapiens): 1.7 µM
CC50 [29, 30]: 6.17 µM
LC50/GI50 [29]: 3.6
